Data from US10596094B2, “Compositions and methods for reducing skin pigmentation” (Yale University, priority 2013, dated 2020).

How the values were obtained:
[1] = system: human melanocyte-keratinocyte co-cultures; assay: EBL/SNA lectin staining of melanocyte-keratinocyte co-cultures; type: cell-based; conditions: L-cytidine 25 micromolar, 72 h, vs untreated (FIG. 5)
Experimental: Primary neonatal normal human keratinocytes (NHKs) (Invitrogen, Life Technologies, Grand Island, N.Y.) were seeded at a density of 5×10^5 cells/well into 4-well collagen coated chamber slides (Fisher Scientific, Waltham, Mass.). Cells were maintained in 1 ml of serum-free keratinocyte growth medium (KGM) (Keratinocyte-SFM, Invitrogen) and incubated for 48 h in 5% CO2 incubator. The complete KGM was prepared by adding KGM Singlequots (Lonza). Darkly pigmented human neonatal epidermal melanocytes (HEM-DP) (Invitrogen) were seeded over keratinocytes at 2.5×10^5 cells/well and incubated for 24 h at 37° C. The KGM was replaced with 1 ml of melanocyte growth medium (MGM) (Invitrogen), and the co-cultures were incubated for another 48 hours. The co-cultures were treated with the inhibitors at indicated concentrations in a final volume of 20 microliter/well in triplicate for 72 h. The cells were gently washed with 1× phosphate buffered saline (PBS) and fixed in 4% Paraformaldehyde (PFA) for 20 minutes at room temperature. […] The slides were air dried and mounted on cover slips and the images were captured in tiff format using fluorescence microscope (Nikon) and analyzed.

[2] = system: melanocyte-keratinocyte co-cultures; assay: Fontana-Masson silver stain for melanin in melanocyte-keratinocyte co-cultures; type: cell-based, human; conditions: 50 micromolar, 72 h (FIG. 7)
Experimental: Primary neonatal normal human keratinocytes (NHKs) (Invitrogen, Life Technologies, Grand Island, N.Y.) were seeded at a density of 5×10^5 cells/well into 4-well collagen coated chamber slides (Fisher Scientific, Waltham, Mass.). Cells were maintained in 1 ml of serum-free keratinocyte growth medium (KGM) (Keratinocyte-SFM, Invitrogen) and incubated for 48 h in 5% CO2 incubator. The complete KGM was prepared by adding KGM Singlequots (Lonza). Darkly pigmented human neonatal epidermal melanocytes (HEM-DP) (Invitrogen) were seeded over keratinocytes at 2.5×10^5 cells/well and incubated for 24 h at 37° C. The KGM was replaced with 1 ml of melanocyte growth medium (MGM) (Invitrogen), and the co-cultures were incubated for another 48 hours. The co-cultures were treated with the inhibitors at indicated concentrations in a final volume of 20 microliter/well in triplicate for 72 h. The cells were gently washed with 1× phosphate buffered saline (PBS) and fixed in 4% Paraformaldehyde (PFA) for 20 minutes at room temperature.
Silver staining for melanin was performed according to the instructions provided with the Fontana-Masson staining kit (American MasterTech, Lodi, Calif.). Cells grown in collagen-coated chamber slides were fixed in 4% PFA and rinsed with water for 5 minutes to remove traces of PBS. Slides were then placed in ammonical silver solution followed by incubation in solutions of 0.1% gold chloride, 5% sodium thiosulfate, rinsed in running tap water to remove the staining solution, and dehydrated through 3 changes of fresh absolute alcohol. Cleared slides were rinsed through 3 changes of fresh xylene and coverslips were applied with mounting medium.

[3] = system: human melanocyte-keratinocyte co-cultures; assay: Melanin assay (solubilized melanin, spectrophotometry) in melanocyte-keratinocyte co-cultures; type: cell-based; conditions: for Minimal concentration for >80% inhibition of melanin content: single agents, 72 h, data from FIG. 8A
Experimental: Cells were plated on 24-well plates at 2×10^5 cells/well and treated with various inhibitors in triplicate. Media were replaced with fresh inhibitor-containing media every 24 h. After 72 h, cells were lysed with cell lysis buffer (Invitrogen) containing protease inhibitor cocktail and PMSF (phenylmethyl sulfonyl fluoride) and incubated for 20 minutes on ice. […] From the same samples, the supernatants were saved for measurement of dopa oxidase activity and the pellets were evaluated for melanin content.
Melanin was extracted following a previously described procedure (Ni-Komatsu, et al., 2005, Pigment Cell Res 18(6),447-453). […] The melaninextracts (100 μl) were transferred to a 96-well plate and total melanin content quantitated with a M5 Spectramax plate reader (490 nm).
Dose response curves were assessed for Bliss Additivity and synergism as described (Fitzgerald et al., 2006, Nat Chem Biol 2:458-466; Ritz, C. & Streibig, J. C. (2005) Bioassay Analysis using R. J. Statist. Software, Vol 12, Issue 5). For comparisons of melanin content and tyrosinase/dopa oxidase activity in treated vs. untreated cultures, P-values were determined by the Welch Two Sample t-test.

EBL/SNA = EBL/SNA (Sambucus nigra, UniProt Q41358); conditions: Shibuya et al, 1987; Kaku et al, 2007; cited from earlier work
Chain of EBL/SNA (Q41358 309-570 limits assumed): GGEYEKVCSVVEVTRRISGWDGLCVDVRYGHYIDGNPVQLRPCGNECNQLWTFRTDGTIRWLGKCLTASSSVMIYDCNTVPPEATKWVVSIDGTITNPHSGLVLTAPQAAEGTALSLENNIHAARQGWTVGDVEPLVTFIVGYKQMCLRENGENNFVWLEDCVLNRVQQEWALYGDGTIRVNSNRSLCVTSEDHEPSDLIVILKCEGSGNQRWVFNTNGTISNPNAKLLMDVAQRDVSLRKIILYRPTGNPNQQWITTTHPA
Chain of EBL/SNA (Q41358 29-289 partner limits assumed): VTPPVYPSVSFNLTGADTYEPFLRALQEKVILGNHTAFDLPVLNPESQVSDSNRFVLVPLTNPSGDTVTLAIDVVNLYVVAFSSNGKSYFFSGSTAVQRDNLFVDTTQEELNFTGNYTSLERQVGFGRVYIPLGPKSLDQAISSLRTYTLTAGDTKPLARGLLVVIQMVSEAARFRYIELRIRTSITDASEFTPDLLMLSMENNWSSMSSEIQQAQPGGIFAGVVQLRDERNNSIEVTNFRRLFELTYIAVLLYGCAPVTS

Molecule | EBL staining [1] | melanin content (Fontana-Masson silver staining) [2] | melanin content compared to untreated cultures ([3]; 50 micromolar, 72 h (FIG. 6)) | Minimal concentration for >80% inhibition of melanin content [3] [µM] | inhibition of EBL-mediated precipitation of glycophorin (EBL/SNA)
Nc1ccn([C@@H]2O[C@H](CO)[C@@H](O)[C@H]2O)c(=O)n1 [cytidine] | markedly reduced | reduced melanin content | – | – | –
Neu5Ac(α2,3)Gal(β1-4)Glc [3′-SL] | – | reduced melanin content | strongest reduction of the three | 30 | poor inhibitor
Neu5Ac(α2,6)Gal(β1-4)Glc [6′-SL] | – | reduced melanin content | – | 30 | strong inhibitor
